Calls of active or inactive are those of the source. The calls are words filed in the database; no cut-off is given here.
Key:
[1] = Inhibition of NE-induced lipolysis in adipocytes (unknown origin) assessed as reduction in glycerol release at 1 uM pre-incubated for 30 mins before NE stimulation for 90 mins by glycerol reagent based assay relative to control; format: functional, Adipocyte; conditions: 2 h
[2] = Inhibition of glucagon-induced glucose secretion in C57BL/6 mouse primary hepatocytes at 1 uM; format: functional; conditions: C57BL/6, Hepatocyte
Mus musculus [3] = experiment: Suppression of fasting blood glucose in overnight fasted ob/ob mouse 25 mg/kg, ip dosed 3 times and measured 3 hrs after last dose; format: functional, organism-based
Mus musculus [4] = experiment: In-vivo antagonist activity at beta-adrenergic receptor in fasted ob/ob mouse assessed as increase in accumulation of liver glycogen at 25 mg/kg; format: functional, organism-based
Mus musculus [5] = experiment: In-vivo antagonist activity at beta-adrenergic receptor in fasted ob/ob mouse assessed as inhibition of hormone-sensitive lipase phosphorylation in brown adipose tissue at 25 mg/kg
Adipocyte = experiment: Inhibition of NE-induced lipolysis in adipocytes (unknown origin) assessed as reduction in glycerol release at 1 to 10000 nM pre-incubated for 30 mins before NE stimulation for 90 mins by glycerol reagent based assay relative to control; format: functional, cell-based; conditions: dose 1-10000 nM, time 120.0 min
Mus musculus [6] = experiment: In-vivo antagonist activity at beta-adrenergic receptor in fasted and HFD fed mouse assessed as increase in accumulation of liver glycogen at 50 mg/kg; format: functional, organism-based
[7] = target: T1, 5-hydroxytryptamine receptor 1A (Homo sapiens, UniProt P08908); experiment: Binding affinity to 5HT1A receptor (unknown origin)
T1 sequence (P08908 whole entry): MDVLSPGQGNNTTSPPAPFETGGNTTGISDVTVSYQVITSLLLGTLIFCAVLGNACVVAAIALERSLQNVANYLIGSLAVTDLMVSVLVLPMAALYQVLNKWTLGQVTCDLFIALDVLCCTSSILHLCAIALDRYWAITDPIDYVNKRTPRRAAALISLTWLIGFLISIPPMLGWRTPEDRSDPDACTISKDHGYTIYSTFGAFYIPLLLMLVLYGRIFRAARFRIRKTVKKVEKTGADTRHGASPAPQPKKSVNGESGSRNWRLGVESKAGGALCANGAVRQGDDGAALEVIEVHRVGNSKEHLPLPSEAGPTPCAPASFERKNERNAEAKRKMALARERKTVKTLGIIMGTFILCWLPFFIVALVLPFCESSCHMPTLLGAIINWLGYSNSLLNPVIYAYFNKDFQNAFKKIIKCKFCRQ

Mus musculus [8] = experiment: In-vivo antagonist activity at beta-adrenergic receptor in fasted and HFD fed mouse assessed as inhibition of hormone-sensitive lipase phosphorylation in epididymal white adipose tissue at 50 mg/kg; format: functional, organism-based
[9] = target: Beta-2 adrenergic receptor (Homo sapiens, UniProt P07550); experiment: Binding affinity to beta2 adrenoceptor (unknown origin)
Chain of Beta-2 adrenergic receptor (P07550 whole entry): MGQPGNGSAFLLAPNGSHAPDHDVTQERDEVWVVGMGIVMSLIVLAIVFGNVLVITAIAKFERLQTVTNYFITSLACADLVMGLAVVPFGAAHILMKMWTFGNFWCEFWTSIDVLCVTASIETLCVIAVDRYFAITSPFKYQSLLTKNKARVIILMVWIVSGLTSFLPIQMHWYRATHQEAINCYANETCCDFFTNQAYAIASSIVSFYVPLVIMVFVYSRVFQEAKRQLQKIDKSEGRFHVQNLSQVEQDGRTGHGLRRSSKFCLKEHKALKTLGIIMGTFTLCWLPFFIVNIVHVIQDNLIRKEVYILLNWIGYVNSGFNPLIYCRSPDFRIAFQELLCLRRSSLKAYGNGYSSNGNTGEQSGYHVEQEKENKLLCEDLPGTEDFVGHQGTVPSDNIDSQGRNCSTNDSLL

SMILES	inhibition ([1]; read-out: INH) [%]	inhibition at 1 µM [2] [%]	other results
Cc1cccc(CN(CC(O)COc2cccc3[nH]ccc23)C(C)(C)C)c1 (stereo unspecified)	40.4	62.6	–
Cc1ccc(CNCC(O)COc2cccc3[nH]ccc23)cc1 (stereo unspecified)	40.6	34.5	–
Cc1ccc(CN(CC(O)CNc2ccc3[nH]ccc3c2)C(C)(C)C)cc1 (stereo unspecified)	2.24	28.2	–
CC(C)(C)N(Cc1ccc(C#N)cc1)CC(O)COc1cccc2[nH]ccc12 (stereo unspecified)	53.7	49.3	–
COC(COc1cccc2[nH]ccc12)CN(Cc1ccccc1C)C(C)(C)C (stereo unspecified)	14.6	22.7	–
CC(C)(C)N(CC(O)COc1cccc2[nH]ccc12)CC1CCCC1 (stereo unspecified)	51.3	48.5	–
Cc1ccc(CN(CC(O)CNc2cccc3cc[nH]c23)C(C)(C)C)cc1 (stereo unspecified)	13.2	35.1	–
COc1ccc(CN(CC(O)COc2cccc3[nH]ccc23)C(C)(C)C)cc1 (stereo unspecified)	58.3	30.1	–
CC(C)(C)c1ccc(CN(CC(O)COc2cccc3[nH]ccc23)C(C)(C)C)cc1 (stereo unspecified)	11.3	47.3	Activity (Mus musculus [3]): Active; Activity (Mus musculus [4]): inactive; Activity (Mus musculus [5]): inactive; inhibition (Adipocyte): inactive
COC(COc1cccc2[nH]ccc12)CN(CC1CCCC1)C(C)(C)C (stereo unspecified)	1	66.4	–
Cc1ccc(CN(CC(O)COc2ccccc2)C(C)(C)C)cc1 (stereo unspecified)	21.7	32.3	–
COC(COc1cccc2[nH]ccc12)CN(Cc1ccc(C)cc1)C(C)(C)C (stereo unspecified)	-8.5	135	–
CC(=O)Nc1cccc(OCC(O)CN(Cc2ccc(C)cc2)C(C)(C)C)c1 (stereo unspecified)	12.3	35.9	–
Cc1ccc(CN(CC(O)COc2cccc3[nH]ccc23)C2CC2)cc1 (stereo unspecified)	11.6	37.8	–
Cc1ccc(CN(CCCOc2cccc3[nH]ccc23)C(C)(C)C)cc1	9.91	28.3	–
Cc1ccc(CN(CC(O)COc2ccncc2)C(C)(C)C)cc1 (stereo unspecified)	31.5	41.4	–
CC(C)NCC(O)COc1cccc2ccccc12 (stereo unspecified) [PROPRANOLOL]	–	–	inhibition [1]: 92.4%
COC(COc1cccc2c1ccn2C)CN(Cc1ccc(C)cc1)C(C)(C)C (stereo unspecified)	3.22	56.8	–
CC(C)(C)N(Cc1ccc(F)cc1)CC(O)COc1cccc2[nH]ccc12 (stereo unspecified)	55.3	52.2	–
Cc1ccc(CN(CC(O)COc2ccc3[nH]ccc3c2)C(C)(C)C)cc1 (stereo unspecified)	48.5	50.7	–
CC(C)(C)NCC(O)COc1cccc2[nH]ccc12 (stereo unspecified)	73.2	53	–
Cc1ccccc1CN(CC(O)COc1cccc2[nH]ccc12)C(C)(C)C (stereo unspecified)	35.6	46	–
Cc1ccc(CN(CC(O)COc2cccc3c2ccn3C)C(C)(C)C)cc1 (stereo unspecified)	36.7	47.7	–
CN(C)c1ccc(CN(CC(O)COc2cccc3[nH]ccc23)C(C)(C)C)cc1 (stereo unspecified)	65.2	35.3	–
Cc1ccc(CN(CC(O)COc2cccc(C)c2)C(C)(C)C)cc1 (stereo unspecified)	13.1	31.5	–
Cc1ccc(CN(CC(O)COc2cccc3ccccc23)C(C)(C)C)cc1 (stereo unspecified)	10.4	-2.73	–
Cc1ccc(CN(CC(O)COc2cccc3[nH]ccc23)C(C)(C)C)cc1 (stereo unspecified)	25.8	57.7	Activity (Mus musculus [3]): Active; Activity (Mus musculus [6]): inactive; Activity (Mus musculus [4]): inactive; Activity (Mus musculus [5]): inactive; Ki [7]: 2100 nM; Activity (Mus musculus [8]): inactive; Ki [9]: 1300 nM
Cc1ccc(CN(CC(O)COc2cccc3[nH]ccc23)C(C)C)cc1 (stereo unspecified)	51.6	59.5	–
